Laboratory results as given in patent US10603357B2, “Therapeutic TREM-1 peptides” (Universite de Lorraine, priority 2004, dated 2020).

Experiments:
BALB/c mice [1] = experiment: LPS-induced endotoxaemia, survival of mice (Example 1); type: in vivo, mouse
Method: BALB/c mice (10 per group) were injected intraperitoneally with 200 μg LPS. The TREM-1 peptides P1, P2, P3, or P5 (200 μl of a 300 μM solution per mouse) were injected intraperitoneally 1 hour before LPS. Viability of mice was monitored twice a day for 7 days. Statistical analysis was performed by Logrank test. Data from control mice represent cumulative survival curves from two independent experiments performed under identical conditions.
BALB/c mice (10 per group) were injected intraperitoneally with 200 μg LPS. TREM-1 peptide P1, 200 μl of a 300 μM solution per mouse was injected intraperitoneally 1 hour before or 4 hours after LPS. Viability of mice was monitored twice a day for 7 days. Statistical analysis was performed with the Logrank test. Data from control mice represent cumulative survival curves from two independent experiments performed under identical conditions
BALB/c mice (10 per group) were injected intraperitoneally with 200 μg LPS. P1 peptide, 200 μl of a 150, 300 and 600 μM solution per mouse (dots) or P3, 200 μl of a 600 μM solution per mouse (filled squares) were injected intraperitoneally 4 hours after LPS. Viability of mice was monitored twice a day for 7 days. Statistical analysis was performed with the Logrank test
In the experiments of this example, the peptides were administered in a volume of 200 μl of the solution molarity indicated. To assess the ability of TREM1-peptides to protect mice from LPS-induced endotoxaemia, the Inventors administered peptides P1, P2, P3 and P5 (300 μM) 1 hour before a lethal dose of lipopolysaccharide (LPS) (FIG. 2). Lethality was monitored over time and compared with animals that had received control injections of vehicle alone. P5 injection confers maximal protection, with 90% of the animals still alive 7 days after LPS injection, as compared with 10% of control mice (p<0.001). 60% of the P1-treated mice and 50% of the P2 treated mice survived endotoxaemia as compared with 10% of control mice (p<0.01 and p<0.05 respectively).
In order to investigate whether TREM-1 peptide treatment could be delayed until after the administration of LPS, the Inventors injected the peptides at 4 hours after LPS injection. […] 80% of the mice injected with P1 4 hours after LPS survived endotoxaemia compared to 60% of mice treated 1 h before LPS and 10% of mice treated with vehicle alone (p<0.001 and p<0.01 respectively). Thus, P1 is effective even when injected after the outbreak of endotoxaemia. […] P1 administration conferred maximal protection (80%) when administered at 600 μM (p<0.01) and the level of protection dropped to 50% at 300 μM (p<0.05) and further down to 30% at 150 μM as compared to 20% of control mice, indicating a dose dependent effect of P1 (FIG. 4). The Inventors then investigated whether P1 protects against septic shock in the “CLP” model (Cecal Ligation and Puncture is a widely used experimental model of sepsis). Mice treated with two doses of P1 at 5 and 24 hours after CLP were protected from death as compared to control treated mice (p=0.0791) although the difference was not statistically significant. 40% of the mice injected with P1 at 5 days after CLP survived compared to 5% of mice treated with P3 peptide.

[2] = test system: TREM-1/TREM-1 ligand interaction; experiment: competition of soluble mouse TREM-1/IgG1 binding to TREM-1 ligand positive peritoneal exudate cells (flow cytometry); details: peptides 100 and 500 μM, pre-incubated 45 minutes on ice; 2 μg/ml mouseTREM-1/hIgG1
Method: Cytofluorimetric analysis of peritoneal exudate cells with 2 μg/ml of mouseTREM-1/hIgG1 in the presence of a 500 μM solution per mouse (thin line), 100 μM solution per mouse (dotted line) or absence (thick line) of the peptides is shown. The grey histogram represents immunostaining with human IgG1 as a control.
A possible mechanism of action could be the ability of TREM-1 derived peptide to interfere with TREM-1/TREM-1 ligand interaction. To address this question the Inventors performed competition experiments on TREM-1 ligand positive cells: PEC (Peritoneal Exudate Cells) from CLP treated mice.
Peritoneal exudate cells (PEC) from mice suffering from a caecal ligation and puncture (CLP)-induced peritonitis were subjected to flow cytometry analysis after incubation with a PE-conjugated anti-human IgG1 (Jackson Immunoresearch, Bar Harbor, USA). Competition with TREM-1 peptides was performed by pre-incubating cells with the indicated concentrations of peptides for 45 minutes on ice before adding mTREM-1-IgG1.

C57BL/6 mice = experiment: cecal ligation and puncture (CLP), survival of mice (Example 1); type: in vivo, mouse; details: 200 μl of 600 μM i.p. 5 and 24 hours after CLP; 5 days after CLP; 15 per group
Method: CLP was induced in C57BL/6 mice (15 per group) as described in Materials and Methods. P1 peptide (empty dots) or P3 peptide (filled squares) (200 μl of a 600 μM solution per mouse) were injected intraperitoneally 5 and 24 hours after CLP induction. Viability of mice was monitored twice a day for 10 days. Statistical analysis was performed with the Logrank test.
In order to investigate whether TREM-1 peptide treatment could be delayed until after the administration of LPS, the Inventors injected the peptides at 4 hours after LPS injection. […] 80% of the mice injected with P1 4 hours after LPS survived endotoxaemia compared to 60% of mice treated 1 h before LPS and 10% of mice treated with vehicle alone (p<0.001 and p<0.01 respectively). Thus, P1 is effective even when injected after the outbreak of endotoxaemia. […] P1 administration conferred maximal protection (80%) when administered at 600 μM (p<0.01) and the level of protection dropped to 50% at 300 μM (p<0.05) and further down to 30% at 150 μM as compared to 20% of control mice, indicating a dose dependent effect of P1 (FIG. 4). The Inventors then investigated whether P1 protects against septic shock in the “CLP” model (Cecal Ligation and Puncture is a widely used experimental model of sepsis). […]

human monocytes = experiment: in vitro stimulation of monocytes: TNF-α, IL-1β and sTREM-1 release; type: cell-based; details: P5 or control peptide 10 to 100 ng/mL, rIL-10 500 U/mL; for TNF-α and IL-1β production (release of inflammatory cytokines) in monocyte supernatant: LPS 1 μg/mL or LPS + anti-TREM-1 mAb; for release of sTREM-1 from monocytes cultured with LPS: LPS 1 μg/mL
Method: For cell activation, primary monocytes were cultured in 24-well flat-bottom tissue culture plates in the presence of LPS (1 μg/mL). In some experiments this stimulus was provided in combination with P5 (10 to 100 ng/mL), control peptide (10 to 100 ng/mL) or rIL-10 (500 U/mL). To activate monocytes through TREM-1, an agonist anti-TREM-1 mAb (10 μg/mL) was added as indicated. Cell-free supernatants were analysed for production of TNF-α, IL-1β. and sTREM-1 by ELISA or immunodot. All experiments were performed in triplicate and data are expressed as means (SEM). • a: Media • b: P5 10 ng/mL • c: Anti-TREM-1 • d: LPS • e: LPS+Anti-TREM-1 • f: LPS+P5 10 ng/mL • g: LPS+P5 50 ng/mL • h: LPS+P5 100 ng/mL • i: LPS+IL10
Ten mL of peripheral blood samples were collected on EDTA-K from 5 healthy volunteer donors originating from laboratory staff. After dilution in RPMI (Life Technologies, Grand Island, N.Y.) v/v, blood was centrifuged for 30 min at room temperature over a Ficoll gradient (Amersham Pharmacia, Uppsala, Sweden) to isolate PBMC. The cells recovered above the gradient were washed and counted. In order to deplete the suspensions of lymphocytes, cells were then plated in 24-well flat-bottom tissue culture plates (Corning, Corning, N.Y.) at a concentration of 5×10^6/mL and allowed to adhere during 2 hours at 37° C. The resulting lymphocyte suspension was discarded and the adhering monocytic cells were maintained in a 5% CO2 incubator at 37° C. in complete medium (RPMI 1640, 0.1 mM sodium pyruvate, […], 50 μg/mL Streptomycin; Life Technologies) supplemented with 10% FCS (Invitrogen, Cergy, France).
For activation, monocytes were cultured in the presence of E. coli LPS (0111:B4, 1 μg/mL, Sigma-Aldrich, La Verpillière, France). Cell viability was assessed by trypan blue exclusion and by measuring lactate dehydrogenase release. In some experiments, this stimulus was given in combination with TNF-α (5 to 100 ng/mL, R&D Systems, Lille, France), IL-1β (5 to 100 ng/mL, R&D Systems), rIFN-γ (up to 100 U/mL, R&D Systems), rIL-10 (500 U/ml, R&D Systems) or up to 100 ng/mL of P5 or control peptide.
In order to activate monocytes through TREM-1, an anti-TREM-1 agonist monoclonal antibody (R&D Systems) was added as follows: flat-bottom plates were precoated with 10 μg/mL anti-TREM-1 per well. After thorough washing in phosphate buffered saline (PBS), the monocyte suspensions were added at a similar concentration as above. Some experiments were performed in the presence of protease inhibitors (PMSF and Protease Cocktail Inhibitor; Invitrogen). Cell-free supernatants were assayed for the production of TNF-α and IL-1β by ELISA according to the recommendations of the manufacturer (BD Biosciences, San Diego, USA). To address the effect of P5 on NF-κB activity in monocytes, an ELISA-based assay was performed (BD Mercury™ Transfactor Kit, BD Biosciences). Monocytes were cultured for 24 hours in the presence of E. coli LPS (O111:B4, 1 μg/mL), and/or an agonist anti-TREM-1 monoclonal antibody (10 μg/mL), and/or P5 (100 ng/mL). Whole-cell extracts were then prepared and levels of NF-κB p50 and p65 were determined according to the recommendations of the manufacturer. All experiments were performed in triplicate and data are expressed as means (SEM). Identification and Quantitation of sTREM-1 Release
Primary monocytes suspensions were cultured as described above. The cells were treated with E. coli LPS (0111:B4, 1 μg/mL) for 24 hours at 37° C. Cell-conditioned medium was submitted to Western-blotting using an anti-TREM-1 monoclonal antibody (R&D Systems) in order to confirm the presence of 27 kDa material recognized by anti-TREM-1. Soluble TREM-1 levels were measured by assessing the optical intensity of bands on immunodots by means of a reflectance scanner and the Quantity One Quantitation Software (Bio-Rad, Cergy, France) as reported elsewhere (18). […]

BALB/c mice [3] = experiment: CLP polymicrobial sepsis model in mice (Example 3); type: in vivo, mouse; details: 24 hours after CLP; control peptide, dose not given in table (100 μg in source)
Method: Male Balb/C mice (20 to 23 g) were randomly grouped and treated with normal saline (n=14) or the control peptide (n=14, 100 μg) or with P5 (100 μg) in a single infection at HO (n=18), H+4 (n=18) or H+24 (n=18). The last group of mice (n=18) was treated with repeated injections of P5 (100 μg) at H+4, H+8 and H+24.
Mice (n=15 per group) were treated with a single injection of normal saline or 10 μg, 20 μg, 50 μg, 100 μg or 200 μg of P5 at HO after the CLP and monitored for survival.
Mice (5 per group) were killed under anaesthesia at 24 hours after CLP. Bacterial counts in peritoneal lavage fluid and blood were determined and results are expressed as CFU per mL of blood and CFU per mouse for the peritoneal lavage.
Male Balb/C mice (7 to 9 weeks, 20 to 23 g) were anaesthetized by i.p. administration of ketamine and xylazine in 0.2 mL sterile pyrogen-free saline. The caecum was exposed through a 1.0 cm abdominal midline incision and subjected to a ligation of the distal half followed by two punctures with a G21 needle. A small amount of stool was expelled from the punctures to ensure patency. The caecum was replaced into the peritoneal cavity and the abdominal incision closed in two layers. After surgery all mice were injected s.c. with 0.5 ml of physiologic saline solution for fluid resuscitation and s.c. every 12 h with 1.25 mg (i.e. 50 μg/g) of imipenem. The animals were randomly grouped and treated with normal saline (n=14), the control peptide (n=14, 100 μg) or P5 (100 μg) in a single injection at HO (n=18), H+4 (n=18) or H+24 (n=18). The last group of mice (n=18) was treated with repeated injections of P5 (100 μg) at H+4, H+8 and H+24. All treatments were diluted into 500 μl of normal saline and administered i.p. The Inventors next sought to determine the effect of various doses of P5. For this purpose, mice (n=15 per group) were treated with a single injection of normal saline or 10 μg, 20 μg, 50 μg 100 μg or 200 μg of P5 at HO after the CLP and monitored for survival. Five additional animals per group were killed under anaesthesia 24 hours after CLP for the determination of bacterial count and cytokines levels. Peritoneal lavage fluid was obtained using 2 mL RPMI 1640 (Life Technologies) and blood was collected by cardiac puncture. Concentrations of TNF-α and IL-1β in the serum were determined by ELISA (BD Biosciences). For the assessment of bacterial counts, blood and peritoneal lavage fluid were plated in serial log dilutions on tryptic soy supplemented with 5% sheep blood agar plates. After plating, tryptic soy agar plates were incubated at 37° C. aerobically for 24 hours, and anaerobically for 48 hours. Results are expressed as CFU per mL of blood and CFU per mouse for the peritoneal lavage.

Row | Molecule | inhibition of TREM-1 interaction with its ligand (mTREM-1/IgG1 binding to PEC) [2] | TNF-α and IL-1β production (release of inflammatory cytokines) in monocyte supernatant (human monocytes) | release of sTREM-1 from monocytes cultured with LPS (human monocytes) | also measured
1 | TTTRSLPKPTAVVSSPG [P3] | ineffective |  |  | time within which all treated mice died after LPS injection (BALB/c mice [1]; 200 μl of 300 μM peptide i.p. 1 hour before LPS): ≤ 4 days; mice surviving after CLP (C57BL/6 mice): 5%
2 | VIYHPPNDPVVLFHPVRLVVTKG (listed as Mus musculus) [P2] | inhibit TREM-1 interaction with its ligand in a dose dependent manner |  |  | animals alive 7 days after LPS injection (BALB/c mice [1]; 200 μl of 300 μM peptide i.p. 1 hour before 200 μg LPS i.p., 10 mice per group (FIG. 2, 3)): 50%
3 | TDSRCVIGLYHPPLQVY [P5sc, reference compound] |  | no action | no action | Serum IL-1β (BALB/c mice [3]): 841 ± 204 pg/mL; Serum TNF-α (BALB/c mice [3]): 105 ± 12 pg/mL; Serum sTREM-1 (BALB/c mice [3]): 52 ± 3 ng/mL
4 | IL-10: rIL-10 (500 U/ml, R&D Systems) (protein, UniProt P22301 19-178, looked up) Interleukin-10: SPGQGTQSENSCTHFPGNLPNMLRDLRDAFSRVKTFFQMKDQLDNLLLKESLLEDFKGYLGCQALSEMIQFYLEEVMPQAENQDPDIKAHVNSLGENLKTLRLRLRRCHRFLPCENKSKAVEQVKNAFNKLQEKGIYKAMSEFDIFINYIEAYMTMKIRN |  | totally inhibited | totally inhibited | 
